Measured values from publication PMC4786809, “Determination of cyanidin 3-glucoside in rat brain, liver and kidneys by UPLC/MS-MS and its application to a short-term pharmacokinetic study” (Scientific Reports, 2016).
Values joined by “and” are separate entries in the source; they are usually repeats but may differ in a detail not shown here. Equal entries are not always repeated. Where two headings read alike, the source gives them in different places.

Assays:
Assay type in all cases: in vivo, Wistar rats
[1] = Kidney concentrations and tissue pharmacokinetics after intravenous C3G
Text: (§1) Twenty-two male Wistar rats (Rattus Norvegicus, Harlan Italy S.r.l.), of same age (15 weeks), 293–390 g of body weight, were used. The rats were randomly divided into 5 groups, according to the time that elapsed after intravenous administration of the test compound, and one control group. Each time point was represented by four biological replicates. All animals were allowed to acclimate to the animal facility of the University of Trieste for at least 2 week before studies were initiated. The experimental design was vetted and approved by the bioethical committee of the University of Trieste (internal code 140PAS14), according to the provisions of the European Community Council Directive 2010/63/EU[39]. The methods were carried out in accordance with the approved guidelines. The animals (n = 22) were maintained in cages in a room at 23 ± 2 °C, 50–60% humidity with a 12-hour light-dark cycle. The night before the experiment, food was withdrawn from the cages but water was given ad libitum. On the day of the experiment, the rats were anesthetized with intra-peritoneal administration of tiletamine/zolazepam (1:1, 25 mg/kg body weight) and xylazine (10 mg/kg body weight). During anaesthesia (10 min in all cases), the heart and ventilation rate were monitored. The rats were placed on their backs, with the ventral side up and with the legs spread separately on a thermo-isolated support. The penis was extruded by sliding the prepuce downwards. The dorsal penis vein was then seen along both sides of the penis and exactly 10 min after anaesthesia 0.2 mL PBS without (control group) or with (treated group) 668 nmol cyanidin 3-glucoside (C3G) in PBS was injected using a 24-G hypodermic needle. Then the injection site was pressed with a swab for a few seconds, and the glans was encouraged to retract to prevent further bleeding. One min before sacrificing the rats, sodium heparin (0.1 ml, 500 IU) was injected again into the dorsal penis vein, exposed in the same way. […] Blood draining and excision of the organs were carried out according to the literature. In detail, blood was collected from the neck of rats hold upside down, immediately after their decapitation, which happened at the time points sharp. Exsanguination took 5 seconds; laparotomy and excision of the liver and the kidneys took 5 more seconds. The post-decapitation procedures were standardised. Urine was collected through the urinary bladder with a syringe before decapitation. Kidneys, liver and brain were washed with mQ water, immediately frozen in liquid nitrogen and stored at −80 °C.
(§2) Immediately after sampling, 5 mL of blood were transferred into ice-cold (−20 °C), deoxygenated aqueous 95% methanol in a ratio 1:9 (v/v). The urine was weighted and transferred into ice-cold, deoxygenated aqueous 95% methanol at a ratio of 1:9 (w/v). Frozen kidneys, liver and brain were grounded under cryogenic conditions (−196 °C) to 5 μm particles in a CryoMill (Retsch, Germany), using a single 25 mm i. d. steel ball (30 seconds, 25/sec frequency). The pulverized tissue was rapidly transferred (without thawing) into ice-cold, deoxygenated aqueous 95% methanol at a ratio of 1:9 (w/v). Cinnamic acid-d5, as internal standard, was dissolved in the aqueous methanol at concentration of 0.1 mg/L for the monitoring of the extraction protocol in biofluids and tissues.
(§3) All samples were extracted with an orbital shaker for 10 min at room temperature. The methanol extracts were then centrifuged for 5 min at 3600 rpm at 4 °C, decanted under a stream of nitrogen in 50 mL dark glass vessels and stored at −80 °C. Clean-up of extracted samples in methanol was performed by solid phase extraction (SPE), as previously described. Briefly, 5 mL of extracted samples were evaporated on a rotary evaporator and reconstituted in 10 mL of acidified water. Anthocyanins were extracted by solid-phase adsorption onto a hydrophobic matrix (Sep-Pak C18, 0.35 g, Waters, Milford, MA). […]

[2] = Brain concentrations and tissue pharmacokinetics after intravenous C3G
Text: as §1, §2, §3

[3] = Urinary excretion after intravenous C3G
Text: as §1, §2, §3

[4] = Plasma concentrations and pharmacokinetics after intravenous bolus of C3G (NCA and two-compartment model); settings: for C0: read-out: C0 (back-extrapolated concentration)
Text: as §1, §2, §3

[5] = male, Wistar, rat, plasma, iv, 668 nmol, non-compartmental analysis
[6] = male, Wistar, rat, plasma, iv, 668 nmol, two-compartment model analysis

With `OC[C@H]1O[C@@H](Oc2cc3c(O)cc(O)cc3[o+]c2-c2ccc(O)c(O)c2)[C@H](O)[C@@H](O)[C@@H]1O` [C3G, Cyanidin-3-O-β-glucoside] the “Amounts found in kidneys (range over sampling times)” value ([1]; 0.25–20 min after i.v. 668 nmol C3G) was 0.44 to 1.69 nmol/g, the “Mean concentration in kidneys” value ([1]; 0.25 min after i.v. 668 nmol C3G, mean ± SEM n=4) was 1.69 ± 0.47 nmol/g and the “Mean concentration in kidneys” value ([1]; 2 min after i.v. 668 nmol C3G) was 1.40 ± 0.16 nmol/g. For the same molecule, the “Mean concentration in kidneys” value ([1]; 5 min after i.v. 668 nmol C3G) was 0.58 ± 0.08 nmol/g, the “Mean concentration in kidneys” value ([1]; 15 min after i.v. 668 nmol C3G) was 0.57 ± 0.17 nmol/g and the “Mean concentration in kidneys” value ([1]; 20 min after i.v. 668 nmol C3G) was 0.44 ± 0.04 nmol/g. For the same molecule, the “MTTK (Mean Transit time in kidneys)” value ([1]; kidneys) was 8.54 min, the AUC0-t ([1]; kidneys, i.v. 668 nmol C3G) was 14.3 nmol·min/g and 14.32 nmol·min/g and the half-life ([1]; male, Wistar, rat, kidney, iv, 668 nmol, kidneys) was 11.7 min. For the same molecule, the “Mean concentration in brain” value ([2]; 0.25 min after i.v. 668 nmol C3G, mean ± SEM n=4, corrected for residual blood) was 40.46 ± 9.67 pmol/g, the “Mean concentration in brain” value ([2]; 2 min after i.v. 668 nmol C3G) was 7.48 ± 0.79 pmol/g and the “Mean concentration in brain” value ([2]; 5 min after i.v. 668 nmol C3G) was 7.05 ± 0.55 pmol/g. The “Mean concentration in brain” value ([2]; 15 min after i.v. 668 nmol C3G) was 2.18 ± 0.58 pmol/g, the “Mean concentration in brain” value ([2]; 20 min after i.v. 668 nmol C3G) was 2.21 ± 0.44 pmol/g and the “MTTB (Mean Transit Time in the brain)” value ([2]; brain) was 0.43 min. The AUC0-t ([2]; brain, i.v. 668 nmol C3G) was 119.9 pmol·min/g and 119.89 pmol·min/g, the half-life ([2]; male, Wistar, rat, brain, iv, 668 nmol) was 8.8 min and the concentration at 15 sec ([2]; male, Wistar, rat, brain, iv, 668 nmol, 15 sec after i.v., read-out: Corresponding brain concentration assuming free diffusion in a water compartment) was roughly 50 nM. For the same molecule, the Urine concentration ([3]; 0.25 min after i.v. 668 nmol C3G) was 0.02 ± 0.01 nmol/g, the Urine concentration ([3]; 2 min after i.v. 668 nmol C3G) was 2.69 ± 0.82 nmol/g and the Urine concentration ([3]; 5 min after i.v. 668 nmol C3G) was 20.20 ± 2.61 nmol/g. For the same molecule, the “Injected dose recovered in urine” value ([3]; 5 min after the injection) was 15%, the Urine concentration ([3]; 15 min after i.v. 668 nmol C3G) was 11.95 ± 6.53 nmol/g and the Urine concentration ([3]; 20 min after i.v. 668 nmol C3G) was 5.66 ± 1.31 nmol/g. For the same molecule, the “Plasma concentration range with linear plasma/brain correlation” value ([4]; 0.25–20 min) was 19 to 355 nM and 18.78 to 354.84 nM, the “Time after which half of the compound had been cleared from the plasma” value ([4]; distribution phase) was 18 s and the “Time window needed to describe complete elimination” value ([4]; estimate) was “no more than 1 hour”. For the same molecule, the k el ([4]; male, Wistar, rat, iv, non-compartmental analysis, plasma, i.v. 668 nmol, read-out: λz (first order terminal elimination rate constant) (converted)) was 0.00167 s⁻¹, the AUC0-t ([4]; male, Wistar, rat, iv, plasma, i.v. 668 nmol C3G, read-out: AUC0–20 (converted)) was 0.0194 µM·h and the time to complete elimination ([4]; male, Wistar, rat, plasma, intravenous, 668 nmol, estimate, read-out: Time for complete elimination (5–6 half-lives)) was 40 to 50 min. The C0 ([4]; male, Wistar, rat, plasma, intravenous, 668 nmol, non-compartmental analysis) was 429 nM, the half-life ([4]; male, Wistar, rat, plasma, intravenous, 668 nmol, plasma, read-out: Mean half-life) was less than 8 min and the C0 ([4]; male, Wistar, rat, plasma, intravenous, 668 nmol, two-compartment model analysis) was 550 nM. It also gave an MRT ([4]; male, Wistar, rat, plasma, intravenous, 668 nmol, two-compartment model analysis, read-out: MRT (converted)) of 9.21 min, an MRT ([4]; male, Wistar, rat, plasma, intravenous, 668 nmol, two-compartment model analysis, read-out: MRTP (mean residence time in the peripheral space) (converted)) of 6.68 min and an AUC(0-inf) [4, 5] of 0.0225 µM·h. The Cmax [4, 5] was 355 nM, the Tmax [4, 5] was 0.25 min and the C0 [4, 5] was 429 nM. For the same molecule, the clearance ([4]; male, Wistar, rat, plasma, iv, 668 nmol, non-compartmental analysis, read-out: CL (total body clearance)) was 490 mL/min, the MRT ([4]; male, Wistar, rat, plasma, iv, 668 nmol, non-compartmental analysis, read-out: MRT (converted)) was 8.72 min and the Vd ([4]; male, Wistar, rat, plasma, iv, 668 nmol, non-compartmental analysis, read-out: Vss) was 4.31 L. For the same molecule, the Vd ([4]; male, Wistar, rat, plasma, iv, 668 nmol, non-compartmental analysis, read-out: Vz) was 4.92 L, the half-life ([4]; male, Wistar, rat, plasma, iv, 668 nmol, non-compartmental analysis, read-out: t1/2 (terminal elimination half-life)) was 6.9 min and the half-life ([4]; male, Wistar, rat, plasma, iv, 668 nmol, plasma, i.v. 668 nmol C3G, read-out: Half life) was 6.9 min. The AUC(0-inf) [4, 6] was 0.0222 µM·h, the C0 [4, 6] was 550 nM and the MRT ([4]; male, Wistar, rat, plasma, iv, 668 nmol, two-compartment model analysis, read-out: MRT (converted)) was 9.22 min. It also gave a Vd ([4]; male, Wistar, rat, plasma, iv, 668 nmol, two-compartment model analysis, read-out: Vss) of 4.58 L, a half-life ([4]; male, Wistar, rat, plasma, iv, 668 nmol, two-compartment model analysis, read-out: t1/2e (elimination half-life)) of 7.41 min and a half-life ([4]; male, Wistar, rat, plasma, iv, 668 nmol, two-compartment model analysis, read-out: t1/2d (distribution half-life)) of 0.3 min. It also gave a concentration at 0.25 min ([4]; male, Wistar, rat, plasma, iv, 0.25 min after i.v. 668 nmol C3G, mean ± SEM n=4) of 355 ± 54.2 nM, a concentration at 2 min ([4]; male, Wistar, rat, plasma, iv, 2 min after i.v. 668 nmol C3G, mean ± SEM n=4) of 93.8 ± 9.01 nM and a concentration at 5 min ([4]; male, Wistar, rat, plasma, iv, 5 min after i.v. 668 nmol C3G, mean ± SEM n=4) of 72.2 ± 5.47 nM. It also gave a concentration at 15 min ([4]; male, Wistar, rat, plasma, iv, 15 min after i.v. 668 nmol C3G, mean ± SEM n=4) of 17.5 ± 2.04 nM, a concentration at 20 min ([4]; male, Wistar, rat, plasma, iv, 20 min after i.v. 668 nmol C3G, mean ± SEM n=4) of 18.8 ± 4.06 nM and an AUMC ([4]; non-compartmental analysis) of 11789.96 nM*min^2. The “Residual amount eliminated per min” value ([4]; per min) was “ca. 10%”, the “Time for distribution to go to 50% completion” value ([4]; rat, in vivo) was “ca. 8 s” and the “Fraction distributed beyond plasma at distribution equilibrium” value ([4]; steady state) was 99.76%. The “Fraction present in plasma at distribution equilibrium” value ([4]; steady state) was 0.24%, the “Share of MRT spent in the peripheral space” value ([4]; two-compartment model) was 73.51% and the AUMC ([4]; two-compartment model analysis) was 12394.67 nM*min^2. For the same molecule, the “CL (total body clearance)” value ([4]; two-compartment model analysis) was 0.49 L/min, the “FAUC (AUC peripheral bioavailability, MRTP/MRTC)” value ([4]; two-compartment model analysis) was 2.77 and the “IC (number of circulations, MRTP/MTTP)” value ([4]; two-compartment model analysis) was 3.55. The “MTT (mean transit time; MTTC, mean duration of one visit in central compartment)” value ([4]; two-compartment model analysis) was 0.54 min, the “MTTp (mean transit time in the peripheral space)” value ([4]; two-compartment model analysis) was 1.91 min and the “V1 (volume of central compartment)” value ([4]; two-compartment model analysis) was 1.21 L. For the same molecule, the “V2 (volume of peripheral compartment)” value ([4]; two-compartment model analysis) was 3.36 L, the “a (T0 intercept of distribution kinetics)” value ([4]; two-compartment model analysis) was 442.79 nM and the “b (T0 intercept of elimination phase)” value ([4]; two-compartment model analysis) was 107.68 nM. For the same molecule, the k10 ([4]; two-compartment model analysis) was 0.41 min^–1, the k12 ([4]; two-compartment model analysis) was 1.45 min^–1 and the k21 ([4]; two-compartment model analysis) was 0.52 min^–1. For the same molecule, the “α (slope factor)” value ([4]; two-compartment model analysis) was 2.29 min^–1 and the “β (slope factor)” value ([4]; two-compartment model analysis) was 0.09 min^–1.
